Experimental data as given in publication PMC5218480 (PLoS ONE, 2017).

Tested on: MV-4-11 cells
Experiment: Gene expression microarray analysis (Affymetrix PrimeView) and GSEA
Assay type: cell-based, human
Design: RFU PODN (11730768_x_at) / Fold change /veh PODN (11730768_x_at) / RFU LINC00158 (11744669_a_at) / Fold change /veh LINC00158 (11744669_a_at) / RFU DUSP10 (11751237_a_at) / Fold change /veh DUSP10 (11751237_a_at) / RFU ID3 (11757404_x_at) / Fold change /veh ID3 (11757404_x_at) / RFU PLEKHG5 (11737974_s_at) / Fold change /veh PLEKHG5 (11737974_s_at) / RFU LRRC4B (11730491_at) / Fold change /veh LRRC4B (11730491_at) / RFU GIMAP4 (11747438_a_at) / Fold change /veh GIMAP4 (11747438_a_at) / RFU KRT8 (11758183_x_at) / Fold change /veh KRT8 (11758183_x_at) / RFU CNN1 (11734310_a_at) / Fold change /veh CNN1 (11734310_a_at) / RFU VPS37D (11726825_at) / Fold change /veh VPS37D (11726825_at) / RFU C10orf10 (11716522_x_at) / Fold change /veh C10orf10 (11716522_x_at) / RFU KIR2DL2 /// KIR2DL4 /// KIR2DL5A /// KIR2DL5B /// KIR2DS1 /// KIR2DS2 /// KIR2DS3 /// KIR2DS4 /// KIR3DL3 /// KIR3DL3 /// KIR3DS1 (11738374_at) / Fold change /veh KIR2DL2 /// KIR2DL4 /// KIR2DL5A /// KIR2DL5B /// KIR2DS1 /// KIR2DS2 /// KIR2DS3 /// KIR2DS4 /// KIR3DL3 /// KIR3DL3 /// KIR3DS1 (11738374_at) / RFU C1QL1 (11718748_at) / Fold change /veh C1QL1 (11718748_at) / RFU TMPRSS4 (11747572_a_at) / Fold change /veh TMPRSS4 (11747572_a_at) / RFU HAMP (11756126_x_at) / Fold change /veh HAMP (11756126_x_at) / RFU RNFT2 (11725882_a_at) / Fold change /veh RNFT2 (11725882_a_at) / RFU NR4A2 (11747474_a_at) / Fold change /veh NR4A2 (11747474_a_at) / RFU ABCC12 (11746883_a_at) / Fold change /veh ABCC12 (11746883_a_at) / RFU TMEM136 (11760407_x_at) / Fold change /veh TMEM136 (11760407_x_at) / RFU CLDN22 /// WWC2 (11732394_at) / Fold change /veh CLDN22 /// WWC2 (11732394_at) / RFU HLA-DPB1 (11760878_x_at) / Fold change /veh HLA-DPB1 (11760878_x_at) / RFU SPINT1 (11716480_a_at) / Fold change /veh SPINT1 (11716480_a_at) / RFU GAP43 (11754022_s_at) / Fold change /veh GAP43 (11754022_s_at) / RFU A4GNT (11735810_at) / Fold change /veh A4GNT (11735810_at) / RFU PRB3 (11715151_x_at) / Fold change /veh PRB3 (11715151_x_at) / RFU TUBB4B (11761932_at) / Fold change /veh TUBB4B (11761932_at) / RFU CAPN14 (11732068_a_at) / Fold change /veh CAPN14 (11732068_a_at) / RFU TMCC2 (11721928_a_at) / Fold change /veh TMCC2 (11721928_a_at) / RFU IRGQ (11745062_a_at) / Fold change /veh IRGQ (11745062_a_at) / RFU FAM174B (11720279_a_at) / Fold change /veh FAM174B (11720279_a_at) / RFU TMPRSS4 (11748680_a_at) / Fold change /veh TMPRSS4 (11748680_a_at) / RFU FAM212B (11763350_a_at) / Fold change /veh FAM212B (11763350_a_at) / RFU PLEKHG5 (11743358_a_at) / Fold change /veh PLEKHG5 (11743358_a_at) / RFU ZSCAN30 (11745921_a_at) / Fold change /veh ZSCAN30 (11745921_a_at) / RFU CMKLR1 (11741424_a_at) / Fold change /veh CMKLR1 (11741424_a_at) / RFU LOC101060620 /// MAPK8IP1 (11723275_at) / Fold change /veh LOC101060620 /// MAPK8IP1 (11723275_at) / RFU SPTSSB (11747773_x_at) / Fold change /veh SPTSSB (11747773_x_at) / RFU PRSS12 (11739890_at) / Fold change /veh PRSS12 (11739890_at) / RFU BIN1 (11741810_x_at) / Fold change /veh BIN1 (11741810_x_at) / RFU WNT11 (11732464_a_at) / Fold change /veh WNT11 (11732464_a_at) / RFU C10orf10 (11716521_a_at) / Fold change /veh C10orf10 (11716521_a_at) / RFU C5orf56 (11738089_at) / Fold change /veh C5orf56 (11738089_at) / RFU CYB561 (11721691_x_at) / Fold change /veh CYB561 (11721691_x_at) / RFU ANKRD19P (11752326_a_at) / Fold change /veh ANKRD19P (11752326_a_at) / RFU OR2T12 /// OR2T33 /// OR2T8 (11738714_s_at) / Fold change /veh OR2T12 /// OR2T33 /// OR2T8 (11738714_s_at) / RFU VCAN (11748164_a_at) / Fold change /veh VCAN (11748164_a_at) / RFU JSRP1 (11732532_at) / Fold change /veh JSRP1 (11732532_at) / RFU KRTAP10-11 (11738290_x_at) / Fold change /veh KRTAP10-11 (11738290_x_at) / RFU MYO3A (11730013_a_at) / Fold change /veh MYO3A (11730013_a_at) / RFU EBF3 (11725865_a_at) / Fold change /veh EBF3 (11725865_a_at) / RFU CAMK2N1 (11719241_x_at) / Fold change /veh CAMK2N1 (11719241_x_at) / RFU C5orf56 (11738088_a_at) / Fold change /veh C5orf56 (11738088_a_at) / RFU OLFML3 (11715873_a_at) / Fold change /veh OLFML3 (11715873_a_at) / RFU LOC100653217 /// NTM (11731650_a_at) / Fold change /veh LOC100653217 /// NTM (11731650_a_at) / RFU MAPK11 (11762145_a_at) / Fold change /veh MAPK11 (11762145_a_at) / RFU FIZ1 (11724087_x_at) / Fold change /veh FIZ1 (11724087_x_at) / RFU OASL (11726364_x_at) / Fold change /veh OASL (11726364_x_at) / RFU SOX15 (11748057_x_at) / Fold change /veh SOX15 (11748057_x_at) / RFU CD79A (11719716_a_at) / Fold change /veh CD79A (11719716_a_at) / RFU HIST1H1D (11736915_at) / Fold change /veh HIST1H1D (11736915_at) / RFU CASKIN2 (11723855_a_at) / Fold change /veh CASKIN2 (11723855_a_at) / RFU LOC730098 (11760151_x_at) / Fold change /veh LOC730098 (11760151_x_at) / RFU OR4N2 (11742367_at) / Fold change /veh OR4N2 (11742367_at) / RFU PRRT2 (11749266_a_at) / Fold change /veh PRRT2 (11749266_a_at) / RFU SNX32 (11753110_a_at) / Fold change /veh SNX32 (11753110_a_at) / RFU CDHR5 (11726645_a_at) / Fold change /veh CDHR5 (11726645_a_at) / RFU RCAN1 (11760418_a_at) / Fold change /veh RCAN1 (11760418_a_at) / RFU FAM167A (11723789_a_at) / Fold change /veh FAM167A (11723789_a_at) / RFU FAM26E (11764081_at) / Fold change /veh FAM26E (11764081_at) / RFU ISYNA1 (11749810_s_at) / Fold change /veh ISYNA1 (11749810_s_at) / RFU ACY1 (11761880_at) / Fold change /veh ACY1 (11761880_at) / RFU 11764098_at / Fold change /veh 11764098_at / RFU SAMD14 (11745864_x_at) / Fold change /veh SAMD14 (11745864_x_at) / RFU NPB (11741838_a_at) / Fold change /veh NPB (11741838_a_at) / RFU TMPRSS6 (11731388_a_at) / Fold change /veh TMPRSS6 (11731388_a_at) / RFU KRTAP10-2 (11738614_at) / Fold change /veh KRTAP10-2 (11738614_at) / RFU ARHGAP8 /// PRR5-ARHGAP8 (11727945_x_at) / Fold change /veh ARHGAP8 /// PRR5-ARHGAP8 (11727945_x_at) / RFU KRTAP5-7 /// NADSYN1 (11734609_at) / Fold change /veh KRTAP5-7 /// NADSYN1 (11734609_at) / RFU RASL12 (11751679_a_at) / Fold change /veh RASL12 (11751679_a_at) / RFU CDKN2B (11736163_a_at) / Fold change /veh CDKN2B (11736163_a_at) / RFU PRF1 (11729649_at) / Fold change /veh PRF1 (11729649_at) / RFU, ZNF638 /// ZNF638-IT1 / Fold change vs veh, ZNF638 /// ZNF638-IT1 / RFU, PANK3 / Fold change vs veh, PANK3 / RFU, SH3YL1 / Fold change vs veh, SH3YL1 / RFU, ZEB2 / Fold change vs veh, ZEB2 / RFU, NRIP1 / Fold change vs veh, NRIP1 / RFU, PTTG1IP / Fold change vs veh, PTTG1IP / RFU, CAPN2 / Fold change vs veh, CAPN2 / RFU, MED14 / Fold change vs veh, MED14 / RFU, SNORA58 / Fold change vs veh, SNORA58 / RFU, C1orf63 / Fold change vs veh, C1orf63 / RFU, LRRFIP1 / Fold change vs veh, LRRFIP1 / RFU, NDUFAF7 / Fold change vs veh, NDUFAF7 / RFU, SLC12A2 / Fold change vs veh, SLC12A2 / RFU, IBTK / Fold change vs veh, IBTK / RFU, ESF1 / Fold change vs veh, ESF1 / Fold change vs veh, TMEM50B / RFU, TAOK1 / Fold change vs veh, TAOK1 / RFU, ACBD3 / Fold change vs veh, ACBD3 / RFU, TMA16 / Fold change vs veh, TMA16 / RFU, RWDD3 / Fold change vs veh, RWDD3 / RFU, BCAT1 / Fold change vs veh, BCAT1 / RFU, EDEM3 / Fold change vs veh, EDEM3 / RFU, TMEM33 / Fold change vs veh, TMEM33 / RFU, WDR75 / Fold change vs veh, WDR75 / RFU, AHCTF1 / Fold change vs veh, AHCTF1 / RFU, TFRC / Fold change vs veh, TFRC / RFU, ZDHHC17 / Fold change vs veh, ZDHHC17 / RFU, NOM1 / Fold change vs veh, NOM1 / RFU, ARL8B / Fold change vs veh, ARL8B / RFU, ZBTB11 / Fold change vs veh, ZBTB11 / RFU, TAMM41 / Fold change vs veh, TAMM41 / RFU, KIAA1704 /// LOC100996395 / Fold change vs veh, KIAA1704 /// LOC100996395 / RFU, ING1 / Fold change vs veh, ING1 / RFU, TRMT61B / Fold change vs veh, TRMT61B / RFU, FUBP3 / Fold change vs veh, FUBP3 / RFU, TP53 / Fold change vs veh, TP53 / RFU, TNKS2 / Fold change vs veh, TNKS2 / RFU, ZFP14 / Fold change vs veh, ZFP14 / RFU, ACTR2 / Fold change vs veh, ACTR2 / RFU, PPP3R1 / Fold change vs veh, PPP3R1 / RFU, PIK3R1 / Fold change vs veh, PIK3R1 / RFU, HNRNPA1 / Fold change vs veh, HNRNPA1 / RFU, RNF170 / Fold change vs veh, RNF170 / RFU, ZNF28 / Fold change vs veh, ZNF28 / RFU, RNGTT / Fold change vs veh, RNGTT / RFU, OGT / Fold change vs veh, OGT / RFU, BRD1 / Fold change vs veh, BRD1 / RFU, MARS / Fold change vs veh, MARS / RFU, ZNF655 / Fold change vs veh, ZNF655 / RFU, FAHD1 / Fold change vs veh, FAHD1 / RFU, BDP1 / Fold change vs veh, BDP1 / RFU, LRRCC1 / Fold change vs veh, LRRCC1 / RFU, ARID1A / Fold change vs veh, ARID1A / RFU, ZNF146 / Fold change vs veh, ZNF146 / RFU, ZNF330 / Fold change vs veh, ZNF330 / RFU, GPN3 / Fold change vs veh, GPN3 / RFU, C9orf123 / Fold change vs veh, C9orf123 / RFU, N4BP2L2 / Fold change vs veh, N4BP2L2 / RFU, ARFIP1 / Fold change vs veh, ARFIP1 / RFU, FAM179B / Fold change vs veh, FAM179B / RFU, BCL10 / Fold change vs veh, BCL10 / RFU, UHRF1BP1L / Fold change vs veh, UHRF1BP1L / RFU, BET1 / Fold change vs veh, BET1 / RFU, CNOT2 / Fold change vs veh, CNOT2 / RFU, ZNF268 / Fold change vs veh, ZNF268 / Fold change vs veh, ZNF507 / RFU, DGCR2 / Fold change vs veh, DGCR2 / RFU, WDSUB1 / Fold change vs veh, WDSUB1 / Fold change vs veh, HSP90B1 /// MIR3652 / RFU, ADSS / Fold change vs veh, ADSS / RFU, GK / Fold change vs veh, GK / RFU, ZNF148 / Fold change vs veh, ZNF148 / RFU, TAF9 / Fold change vs veh, TAF9 / RFU, SLC1A5 / Fold change vs veh, SLC1A5 / RFU, SLMO2 / Fold change vs veh, SLMO2 / RFU, ABCC4 / Fold change vs veh, ABCC4 / RFU, LOC101060439 /// RAP1B / Fold change vs veh, LOC101060439 /// RAP1B / RFU, RFX7 / Fold change vs veh, RFX7 / RFU, GTPBP10 / Fold change vs veh, GTPBP10 / RFU, CNEP1R1 / Fold change vs veh, CNEP1R1 / RFU, BIVM-ERCC5 /// ERCC5 / Fold change vs veh, BIVM-ERCC5 /// ERCC5 / RFU, ILF3 / Fold change vs veh, ILF3 / RFU 11762660_at / Fold change /veh 11762660_at / RFU VCAN (11757783_s_at) / Fold change /veh VCAN (11757783_s_at) / RFU DDX43 (11728927_at) / Fold change /veh DDX43 (11728927_at) / RFU KRT8 (11758188_x_at) / Fold change /veh KRT8 (11758188_x_at) / RFU NKD1 (11759106_at) / Fold change /veh NKD1 (11759106_at) / RFU SRD5A1 (11742802_a_at) / Fold change /veh SRD5A1 (11742802_a_at) / RFU TPSAB1 /// TPSB2 (11721975_s_at) / Fold change /veh TPSAB1 /// TPSB2 (11721975_s_at) / RFU GSTM3 (11746129_a_at) / Fold change /veh GSTM3 (11746129_a_at) / RFU IL23R (11737362_x_at) / Fold change /veh IL23R (11737362_x_at) / RFU TMEM51 (11727254_a_at) / Fold change /veh TMEM51 (11727254_a_at) / RFU PIWIL2 (11732686_x_at) / Fold change /veh PIWIL2 (11732686_x_at) / RFU ORM1 (11744905_x_at) / Fold change /veh ORM1 (11744905_x_at) / RFU CCDC152 (11743942_at) / Fold change /veh CCDC152 (11743942_at) / RFU ECM1 (11717891_a_at) / Fold change /veh ECM1 (11717891_a_at) / RFU IL23R (11748794_a_at) / Fold change /veh IL23R (11748794_a_at) / RFU TNFAIP8L3 (11732012_x_at) / Fold change /veh TNFAIP8L3 (11732012_x_at) / RFU MBOAT4 (11741988_at) / Fold change /veh MBOAT4 (11741988_at) / RFU 11764193_at / Fold change /veh 11764193_at / RFU TMEM53 (11763286_at) / Fold change /veh TMEM53 (11763286_at) / RFU MAGEB2 (11727129_at) / Fold change /veh MAGEB2 (11727129_at) / RFU TMEM200A (11744735_a_at) / Fold change /veh TMEM200A (11744735_a_at) / RFU CCDC152 (11751479_a_at) / Fold change /veh CCDC152 (11751479_a_at) / RFU FAM211A (11726209_a_at) / Fold change /veh FAM211A (11726209_a_at) / RFU RGS16 (11746705_a_at) / Fold change /veh RGS16 (11746705_a_at) / RFU VCAN (11755009_s_at) / Fold change /veh VCAN (11755009_s_at) / RFU RHOB (11743442_s_at) / Fold change /veh RHOB (11743442_s_at) / RFU RGS16 (11720943_a_at) / Fold change /veh RGS16 (11720943_a_at) / RFU RGS16 (11720944_at) / Fold change /veh RGS16 (11720944_at) / RFU, VPS4B / Fold change vs veh, VPS4B / RFU, CREB1 / Fold change vs veh, CREB1 / RFU, DNAJC13 / Fold change vs veh, DNAJC13 / RFU, GNAQ / Fold change vs veh, GNAQ / RFU, CDK5R1 / Fold change vs veh, CDK5R1 / RFU, ZRANB3 / Fold change vs veh, ZRANB3 / RFU, CUL4A / Fold change vs veh, CUL4A / RFU, CCNY / Fold change vs veh, CCNY / RFU, UFL1 / Fold change vs veh, UFL1 / RFU, COG3 / Fold change vs veh, COG3 / RFU, DIAPH2 / Fold change vs veh, DIAPH2 / RFU, SKA2 / Fold change vs veh, SKA2 / RFU, AFF3 / Fold change vs veh, AFF3 / RFU, LMF1 / Fold change vs veh, LMF1 / RFU, IPO11 / Fold change vs veh, IPO11 / RFU, DFFB / Fold change vs veh, DFFB / RFU, FOXP1 / Fold change vs veh, FOXP1 / RFU, CARD8 / Fold change vs veh, CARD8 / RFU, STRN3 / Fold change vs veh, STRN3 / RFU, ADK / Fold change vs veh, ADK / RFU, RASSF2 / Fold change vs veh, RASSF2 / RFU, WIPF1 / Fold change vs veh, WIPF1 / RFU, LARP1B / Fold change vs veh, LARP1B / RFU, RASA1 / Fold change vs veh, RASA1 / RFU, RB1 / Fold change vs veh, RB1 / RFU, PPFIA1 / Fold change vs veh, PPFIA1 / RFU, MAT2A / Fold change vs veh, MAT2A / RFU, CCT5 / Fold change vs veh, CCT5 / RFU, WDR92 / Fold change vs veh, WDR92 / RFU, CUX1 / Fold change vs veh, CUX1 / RFU, TTC7A / Fold change vs veh, TTC7A / RFU, TMEM135 / Fold change vs veh, TMEM135 / RFU, DEPTOR / Fold change vs veh, DEPTOR / RFU, CPM / Fold change vs veh, CPM / RFU, DNAJB6 / Fold change vs veh, DNAJB6 / RFU, CACNA2D3 / Fold change vs veh, CACNA2D3 / RFU, DTX4 / Fold change vs veh, DTX4 / RFU, TFCP2 / Fold change vs veh, TFCP2 / RFU, GMCL1 /// GMCL1P1 / Fold change vs veh, GMCL1 /// GMCL1P1 / RFU, AEBP2 / Fold change vs veh, AEBP2 / RFU, SNHG1 /// SNORD22 /// SNORD25 /// SNORD26 /// SNORD27 /// SNORD28 /// SNORD29 /// SNORD31 / Fold change vs veh, SNHG1 /// SNORD22 /// SNORD25 /// SNORD26 /// SNORD27 /// SNORD28 /// SNORD29 /// SNORD31 / Fold change (Aza/veh), C12orf56 (ProbeSet 11735607_a_at) / Fold change (ACY-1035/veh), C12orf56 (ProbeSet 11735607_a_at) / Fold change (Aza/veh), FGFR1OP (ProbeSet 11751329_s_at) / Fold change (ACY-1035/veh), FGFR1OP (ProbeSet 11751329_s_at) / Fold change (Aza/veh), VPS36 (ProbeSet 11739960_a_at) / Fold change (ACY-1035/veh), VPS36 (ProbeSet 11739960_a_at) / RFU SYPL1 (11715823_x_at) / Fold change /veh SYPL1 (11715823_x_at) / RFU IGFBP7 (11715501_s_at) / Fold change /veh IGFBP7 (11715501_s_at) / RFU REEP3 (11722064_at) / Fold change /veh REEP3 (11722064_at) / RFU IGLL1 (11728026_x_at) / Fold change /veh IGLL1 (11728026_x_at): dose or concentration left out as unconfirmed
Conditions: ProbeSet 11717876_a_at; LIST D

For `Nc1ccc(-c2cccs2)cc1NC(=O)c1ccc2c(c1)cc(C1CC1)n2CCN1CCOCC1` [ACY-1035], the “RFU, PPFIA1” value was 30.94 RFU.
